US5243049A, “Certain pyrroloquinolinones: a new class of GABA brain receptor ligands” (Neurogen Corporation, priority 1992, dated 1993)

Target: GABAa receptor
Assay: Inhibition of 3H-RO15-1788 [3H-Flumazenil] binding to rat cortical tissue (GABAa receptor activity)
Settings: 0.5 nM 3H-RO15-1788, 30 min at 4° C., pH 7.4
Protocol: The pharmaceutical utility of compounds of this invention are indicated by the following assay for GABAa receptor activity.
Assays are carried out as described in Thomas and Tallman (J. Bio. Chem. 156: 9838-9842, J. Neurosci. 3:433-440, 1983). Rat cortical tissue is dissected and homogenized in 25 volumes (w/v) of 0.05M Tris HCl buffer (pH 7.4 at 4° C.). The tissue homogenate is centrifuged in the cold (4° C.) at 20,000×g for 20 minutes. The supernatant is decanted and the pellet is rehomogenized in the same volume of buffer and again centrifuged at 20,000×g. The supernatant is decanted and the pellet is frozen at -20° C. overnight. The pellet is then thawed and rehomogenized in 25 volume (original wt/vol) of buffer and the procedure is carried out twice. The pellet is finally resuspended in 50 volumes (w/vol of 0.05M Tris HCl buffer (pH 7.4 at 4° C.).
Incubations contain […] of radioligand 0.5 nM (^3 H-RO15-1788 [^3 H-Flumazenil] specific activity 80 Ci/mmol), drug or blocker and buffer to a total volume of […]. Incubations are carried for 30 min at 4° C. then are rapidly filtered through GFB filters to separate free and bound ligand. Filters are washed twice with fresh 0.05M Tris HCl buffer (pH 7.4 at 4° C.) and counted in a liquid scintillation counter. […] diazepam is added to some tubes to determine nonspecific binding. Data are collected in triplicate determinations, averaged and % inhibition of total specific binding is calculated. Total Specific Binding=Total-Nonspecific. In some cases, the amounts of unlabeled drugs is varied and total displacement curves of binding are carried out. Data are converted to a form for the calculation of IC50 and Hill Coefficient (nH).

Structure (SMILES) | IC50
O=C1c2c(c3ccccc3[nH]c2=O)C(=O)N1c1ccccc1 [Compound 1, 2'-Phenyl-pyrrolo[3,4-c]quinoline-1,3,4(5H)-trione] | 36 nM
O=C1c2c(c3ccccc3[nH]c2=O)C(=O)N1c1ccccc1F [Compound 4, 2-(2-Fluorophenyl)-pyrrolo[3,4-c]quinoline-1,3,4(5H)-trione] | 700 nM
O=C1c2c(c3ccccc3[nH]c2=O)CN1c1ccccc1 [Compound 16, 2-Phenyl-pyrrolo[3,4-c]quinoline-3(1H),4(5H)-dione] | 602 nM
COc1ccc(N2C(=O)c3c(c4ccccc4[nH]c3=O)C2=O)cc1 [Compound 2, 2-(4-Methoxyphenyl)-pyrrolo[3,4-c]quinoline-1,3,4(5H)-trione] | 400 nM

System: benzodiazepine binding site / GABA receptor
Assay: not given
Settings: brain membranes; cited from earlier work

Structure (SMILES) | Block of enhancement of benzodiazepine binding by GABA agonists
CN1CCc2cc3c(cc2[C@H]1[C@@H]1OC(=O)c2c1ccc1c2OCO1)OCO3 [(+) bicuculline] | blocked
CN1CCc2cc3c(cc2[C@@H]1[C@H]1OC(=O)c2c1ccc1c2OCO1)OCO3 [(-) bicuculline] | much less active
